From patent US20070021509A1, “Phosphate transport inhibitors” (priority 2001, published 2007)

System: phosphate uptake by rabbit intestinal Brush Border Membrane Vesicles (BBMV)
Assay: 33PO4 uptake in rabbit intestinal BBMV (HTS), phosphate transporter inhibition in vitro
Format: biochemical
Settings: Table 1, phosphate uptake, read-out: IC50
Method: The following example outlines the procedures required for in vitro measurement of the inhibition of phosphate uptake by rabbit intestinal Brush Border Membrane Vesicles (BBMV).
Rabbit Intestinal Brush Border Membrane Vesicles (BBMV) were isolated from mucosal scrapings of the upper small intestine (duodenum) of male New Zealand White rabbits. The scrapings were divided into 2 g aliquots in cryopreservation vials, frozen in liquid nitrogen, and stored at −80° C.
The following procedure was performed for each 2 g sample of BBMV mucosal scraping. Buffer volumes and container sizes were adjusted appropriately for the number of 2 g samples used. The entire preparation was performed on ice, unless otherwise stated.
Mucosal scrapings (2 g per tube) were thawed in a 37° C. water bath for 3 minutes and then placed on ice. The scrapings were suspended with a total of 7.5 ml of 300 MET, and transferred to a 250 mL Corning tube on ice. To the suspension was added 30 mL cold (4° C.) deionized water (dH20). The suspension was homogenized with a tissue homogenizer (Polytron) on high speed for 2 minutes. A stir bar and MgCl2 (81.3 mg) was added. The suspension was mixed well by inverting the closed tube. The suspension was stirred on ice, ensuring that a good vortex is achieved with the stir bar, for 40 minutes. The suspension was transferred to a chilled centrifuge tube and spun at 4000×g for 15 minutes. The supernatant was transferred to a new chilled centrifuge tube and spun at 32000×g for 30 minutes. The supernatant was discarded and the pellet was re-suspended with 34 mL cold 60 MET. The suspension was homogenized with a Dounce homogenizer with 8 strokes. The suspension was transferred to a fresh 250 mL Corning tube. A stir bar and 69.1 mg MgCl2 were added. The suspension was stirred well on ice for 10 minutes. The suspension was transferred to a chilled centrifuge tube and spun at 4000×g for 15 minutes. The supernatant was transferred to a new chilled centrifuge tube and spun at 32000×g for 30 minutes. The supernatant was discarded. At this stage, the preparation could be continued or this pellet (P4) could be frozen in liquid nitrogen and stored at −80° C. When needed, this pellet could be allowed to thaw at room temperature for 5 minutes. Continuing the preparation, the pellet was re-suspended with 34 mL cold 280 MH. The suspension was homogenized in a Dounce homogenize with 8 strokes. The suspension was transferred to a new chilled centrifuge tube and spun at 32000×g for 30 minutes. The supernatant was discarded. To the pellet was added 500 μL 280 MH and the pellet was re-suspended very carefully with a 1 mL tuberculin syringe with a 25-gauge needle with care not to create bubbles. Once the entire pellet was suspended, the suspension was transferred to a chilled 1.5 mL microfuge tube. The suspension was evenly dispersed by bringing the suspension up into the syringe through the 25-gauge needle, and back out again 8 times with care not to create bubbles. The total protein concentration was determined by performing a Bradford Protein Assay. Using that value, the BBMV were diluted with 280 MH to reach approximately 0.5-2.0 mg/mL. The solution was used as soon as possible for uptake studies.
The following experiment was performed using a Beckman Multimek 96-tip robotic pipettor. The following outlines the preparation required to screen one 96-well plate of compounds. However, multiple plates could be screened in one experiment.
To the “Uptake Buffers” was added ^33PO4 to reach 200,000 CPM/19 μL. The buffer solutions were stored at room temperature. The following control solutions were prepared and placed into appropriate wells of a polypropylene, 96-well V-bottom plate (“Hot Stock Plate”):
a. Maximum activity (MAX)−Na Uptake buffer+^33PO4 at 200,000 CPM/19 μL
b. Midline activity (MID)−MAX+100 μM KH2PO4, pH 7.4
c. Minimum activity (MIN)− K Uptake buffer+^33PO4 at 200,000 CPM/19 μL

O=C(O)c1cc(Br)ccc1NS(=O)(=O)c1ccc(Br)cc1 [Compound 18] and O=C(O)c1cc(Br)ccc1NS(=O)(=O)c1ccc(I)cc1 [Compound 24] fall in the same range of IC50: 101 to 500 µM for the first, 101 to 500 µM for the second.

With O=C(O)c1cc(Br)ccc1NS(=O)(=O)c1ccc(OC(F)(F)F)cc1 [Compound 2] the IC50 was < 50 µM.

Same assay, conditions: Table 2, phosphate uptake, read-out: IC50

First: O=C(NCc1ccc(F)cc1)c1cc(Br)ccc1NS(=O)(=O)c1ccc(OC(F)(F)F)cc1 [Compound 52]
Second: Cc1ccc(CNC(=O)c2cc(Br)ccc2NS(=O)(=O)c2ccc(OC(F)(F)F)cc2)cc1 [Compound 82]
The IC50 of the first is lower: < 50 µM for the first, 501 to 1000 µM for the second. The first is the more potent here.

First: O=C(Nc1cc(Cl)ccc1Cl)c1cc(Br)ccc1NS(=O)(=O)c1ccc(OC(F)(F)F)cc1 [Compound 80]
Second: O=C(Nc1ccc(Cl)cc1Cl)c1cc(Br)ccc1NS(=O)(=O)c1ccc(OC(F)(F)F)cc1 [Compound 79]
The IC50 of the first is higher: 501 to 1000 µM for the first, 101 to 500 µM for the second. The second is the more potent here.

First: O=C(Nc1ccc(Cl)cc1Cl)c1cc(Br)ccc1NS(=O)(=O)c1ccc(Cl)c([N+](=O)[O-])c1 [Compound 120]
Second: O=C(Nc1cc(Cl)ccc1Cl)c1cc(Br)ccc1NS(=O)(=O)c1ccc(Cl)c([N+](=O)[O-])c1 [Compound 111]
The IC50 of the first is higher: > 1500 µM for the first, < 50 µM for the second. The second is the more potent here.

Compared with COc1ccc(S(=O)(=O)Nc2ccc(Br)cc2C(=O)Nc2ccccc2F)cc1[N+](=O)[O-] [Compound 102], O=C(Nc1ccccc1F)c1cc(Br)ccc1NS(=O)(=O)c1ccc(Cl)c([N+](=O)[O-])c1 [Compound 124] is higher in IC50: 51 to 100 µM for the first, > 1500 µM for the second.

Compared with O=C(Nc1ccc(Cl)c(Cl)c1)c1cc(Br)ccc1NS(=O)(=O)c1ccc(OC(F)(F)F)cc1 [Compound 59], O=C(NCc1ccccc1F)c1cc(Br)ccc1NS(=O)(=O)c1ccc(OC(F)(F)F)cc1 [Compound 70] is higher in IC50: 51 to 100 µM for the first, 101 to 500 µM for the second. The first is the more potent here.

O=C(Nc1ccccc1-n1cccc1)c1cc(Br)ccc1NS(=O)(=O)c1ccc(OC(F)(F)F)cc1 [Compound 68] and O=C(NC1CCCc2ccccc21)c1cc(Br)ccc1NS(=O)(=O)c1ccc(OC(F)(F)F)cc1 (stereo not shown) [Compound 76] fall in the same range of IC50: 101 to 500 µM for the first, 101 to 500 µM for the second.

First: COc1ccc(S(=O)(=O)Nc2ccc(Br)cc2C(=O)Nc2ccccc2C(=O)O)cc1[N+](=O)[O-] [Compound 107]
Second: COc1ccc(S(=O)(=O)Nc2ccc(Br)cc2C(=O)Nc2cccc(Br)c2)cc1[N+](=O)[O-] [Compound 103]
The IC50 of the first is higher: 101 to 500 µM for the first, 51 to 100 µM for the second. The second is the more potent here.

First: O=C(NCc1ccccc1OC(F)(F)F)c1cc(Br)ccc1NS(=O)(=O)c1ccc(OC(F)(F)F)cc1 [Compound 61]
Second: O=C(NCc1cc(C(F)(F)F)cc(C(F)(F)F)c1)c1cc(Br)ccc1NS(=O)(=O)c1ccc(OC(F)(F)F)cc1 [Compound 69]
The IC50 of the first is lower: 51 to 100 µM for the first, 101 to 500 µM for the second. The first is the more potent here.

O=C(Nc1cc(Cl)ccc1Cl)c1cc(Br)ccc1NS(=O)(=O)c1ccc(Cl)c([N+](=O)[O-])c1 [Compound 115] gave an IC50 of 51 to 100 µM.

Same assay, conditions: Table 3, 100 μM compound

Going from O=C(Nc1ccc(Br)cc1C(F)(F)F)c1cc(Br)ccc1NS(=O)(=O)c1ccc(OC(F)(F)F)cc1 [Compound 169] to O=C(NCc1cccc(C(F)(F)F)c1)c1cc(Br)ccc1NS(=O)(=O)c1ccc(OC(F)(F)F)cc1 [Compound 172], the “% Inhib. At 100 μM” value falls from 106% to 96%.

First: Nc1cc(Br)ccc1N(c1ccc(OC(F)(F)F)cc1)S(=O)(=O)c1ccc(OC(F)(F)F)cc1 [Compound 136]
Second: Nc1cc(Br)ccc1NS(=O)(=O)c1ccc(OC(F)(F)F)cc1 [Compound 150]
The “% Inhib. At 100 μM” value of the first is higher: 76% for the first, 57% for the second.

First: Cc1ccc(S(=O)(=O)n2cc(/C=C/C(=O)O)c3ccccc32)cc1 [Compound 154]
Second: Cc1cc(C)c(S(=O)(=O)n2cc(/C=C/C(=O)O)c3ccccc32)c(C)c1 [Compound 144]
The “% Inhib. At 100 μM” value of the first is lower: 52% for the first, 64% for the second.

Going from O=S(=O)(Nc1ccc(F)cc1F)c1cc(C(F)(F)F)cc(C(F)(F)F)c1 [Compound 162] to O=S(=O)(Nc1cc(Cl)c(Cl)cc1Cl)c1cc(C(F)(F)F)cc(C(F)(F)F)c1 [Compound 127], the “% Inhib. At 100 μM” value rises from 29% to 101%.

First: Cc1ccc(NS(=O)(=O)c2ccc(OC(F)(F)F)cc2)cc1 [Compound 142]
Second: O=S(=O)(Nc1ccc(Oc2ccccc2)cc1)c1ccc(OC(F)(F)F)cc1 [Compound 129]
The “% Inhib. At 100 μM” value of the first is lower: 67% for the first, 84% for the second.

First: O=S(=O)(c1ccccc1)n1ccc2ccccc21 [Compound 135]
Second: O=S(=O)(Nc1ccccc1NS(=O)(=O)c1cc(C(F)(F)F)cc(C(F)(F)F)c1)c1cc(C(F)(F)F)cc(C(F)(F)F)c1 [Compound 176]
The “% Inhib. At 100 μM” value of the first is higher: 76% for the first, 36% for the second.

Same assay, conditions: Table 4, phosphate uptake, read-out: IC50

First: CC(C)c1ccc(NC(=O)Nc2ccc(Br)cc2P(=O)(O)O)cc1 [Compound 210]
Second: Cc1ccc(NC(=O)Nc2ccc(Br)cc2P(=O)(O)O)cc1 [Compound 207]
The IC50 of the first is higher: > 1500 µM for the first, 1000 to 1500 µM for the second. The second is the more potent here.

Compared with O=C(Nc1ccc(OC(F)(F)F)cc1)Nc1ccc(Br)cc1P(=O)(O)O [Compound 177], O=C(Nc1ccccc1)Nc1ccc(Br)cc1P(=O)(O)O [Compound 205] is higher in IC50: < 50 µM for the first, 1000 to 1500 µM for the second.

First: Cc1ccc(NC(=O)Nc2ccc(Br)cc2P(=O)(O)O)cc1[N+](=O)[O-] [Compound 190]
Second: O=C(Nc1ccc(Cl)c(Cl)c1)Nc1ccc(Br)cc1P(=O)(O)O [Compound 179]
The IC50 of the first is higher: 101 to 500 µM for the first, < 50 µM for the second. The second is the more potent here.

O=C(Nc1cc(C(F)(F)F)ccc1F)Nc1ccc(Br)cc1P(=O)(O)O [Compound 189] and O=C(Nc1cc(F)cc(C(F)(F)F)c1)Nc1ccc(Br)cc1P(=O)(O)O [Compound 184] fall in the same range of IC50: 101 to 500 µM for the first, 101 to 500 µM for the second.

Compared with CC(C)c1cccc(C(C)C)c1NC(=O)Nc1ccc(Br)cc1P(=O)(O)O [Compound 191], O=C(Nc1cccc(Br)c1)Nc1ccc(Br)cc1P(=O)(O)O [Compound 211] is higher in IC50: 101 to 500 µM for the first, > 1500 µM for the second.

First: O=C(Nc1ccc(Br)cc1P(=O)(O)O)Nc1cccc2ccccc12 [Compound 183]
Second: Cc1cc(C)cc(NC(=O)Nc2ccc(Br)cc2P(=O)(O)O)c1 [Compound 206]
The IC50 of the first is lower: 51 to 100 µM for the first, 1000 to 1500 µM for the second. The first is the more potent here.

Same assay, conditions: Table 5, 100 μM compound

In the case of O=C(Nc1cccc(C(F)(F)F)c1)N1CCc2ccccc21 [Compound 225], the “% Inhib. at 100 μM” value is reported as 80%.

Same assay, conditions: Table 6, 100 μM compound

In the case of COc1ccc(-c2cc(-c3ccco3)on2)cc1 [Compound 231], the “% Inhib. at 100 μM” value is reported as 74%.

Same assay, conditions: Table 7, phosphate uptake, read-out: IC50

First: Cn1nc(-c2ccc(Oc3ccccc3)cc2)cc1-c1cccc(F)c1 [Compound 243]
Second: COc1ccc(-c2cc(-c3ccco3)n(C)n2)cc1 [Compound 240]
The IC50 of the first is higher: > 1500 µM for the first, 101 to 500 µM for the second. The second is the more potent here.

Same assay, conditions: Table 8, 100 μM compound

Going from CCOP(=O)(OCC)c1cc(Br)ccc1NC(=O)c1ccc(OC)c(OC)c1 [Compound 248] to CCOP(=O)(OCC)c1cc(Br)ccc1NC(=O)c1ccc(Br)cc1 [Compound 245], the “% Inhib. at 100 μM” value rises from 48% to 67%.

Same assay, conditions: Table 10, phosphate uptake, read-out: IC50

With CCOP(=O)(OCC)c1cc(Br)ccc1NC(=O)c1c(Cl)cc(Cl)cc1Cl [Compound 270] the IC50 was > 1500 µM.

Same assay, conditions: Table 11, phosphate uptake, read-out: IC50

O=C(/C=C/c1cccc(F)c1)c1cccc(Oc2ccccc2)c1 [Compound 279] and COc1cccc(C(=O)/C=C/c2cccc(F)c2)c1 [Compound 278] cannot be ordered by IC50: > 1500 µM for the first, > 1500 µM for the second.

O=C(/C=C/c1ccco1)c1cccc(O)c1 [Compound 274] was tested, and the IC50 was 501 to 1000 µM.

Same assay, conditions: Table 12, 100 μM compound

With O=S(=O)(Cc1ccc(C(F)(F)F)cc1)c1ccc(Cl)cc1 [Compound 291] the “% Inhib. at 100 μM” value was 0%.

Same assay, conditions: Table 13, phosphate uptake, read-out: IC50

Compared with O=S(=O)(O)c1cc(N=C=S)ccc1/C=C/c1ccc(N=C=S)cc1S(=O)(=O)O [Compound 307], O=[N+]([O-])c1ccc(/C=C/c2ccc([N+](=O)[O-])cc2S(=O)(=O)O)c(S(=O)(=O)O)c1 [Compound 305] is lower in IC50: > 1500 µM for the first, 1000 to 1500 µM for the second.

O=S(=O)(O)c1cc(Nc2nc(Nc3ccccc3)nc(N(CCO)CCO)n2)ccc1/C=C/c1ccc(Nc2nc(Nc3ccccc3)nc(N(CCO)CCO)n2)cc1S(=O)(=O)O [Compound 302] gave an IC50 of 501 to 1000 µM.
